The results in this text go back to patent US20230295212A1 (ROME Therapeutics, Inc., priority 2022, published 2023).

Some results are limits rather than exact numbers.

In the first test the target is T1, LINE1 reverse transcriptase (Homo sapiens, UniProt O00370).
T1 construct: expressed in transfected cells; host or cells: HeLa Tet-On 3G (Takara, cat no 631183)
T1 sequence (O00370 whole entry, looked up): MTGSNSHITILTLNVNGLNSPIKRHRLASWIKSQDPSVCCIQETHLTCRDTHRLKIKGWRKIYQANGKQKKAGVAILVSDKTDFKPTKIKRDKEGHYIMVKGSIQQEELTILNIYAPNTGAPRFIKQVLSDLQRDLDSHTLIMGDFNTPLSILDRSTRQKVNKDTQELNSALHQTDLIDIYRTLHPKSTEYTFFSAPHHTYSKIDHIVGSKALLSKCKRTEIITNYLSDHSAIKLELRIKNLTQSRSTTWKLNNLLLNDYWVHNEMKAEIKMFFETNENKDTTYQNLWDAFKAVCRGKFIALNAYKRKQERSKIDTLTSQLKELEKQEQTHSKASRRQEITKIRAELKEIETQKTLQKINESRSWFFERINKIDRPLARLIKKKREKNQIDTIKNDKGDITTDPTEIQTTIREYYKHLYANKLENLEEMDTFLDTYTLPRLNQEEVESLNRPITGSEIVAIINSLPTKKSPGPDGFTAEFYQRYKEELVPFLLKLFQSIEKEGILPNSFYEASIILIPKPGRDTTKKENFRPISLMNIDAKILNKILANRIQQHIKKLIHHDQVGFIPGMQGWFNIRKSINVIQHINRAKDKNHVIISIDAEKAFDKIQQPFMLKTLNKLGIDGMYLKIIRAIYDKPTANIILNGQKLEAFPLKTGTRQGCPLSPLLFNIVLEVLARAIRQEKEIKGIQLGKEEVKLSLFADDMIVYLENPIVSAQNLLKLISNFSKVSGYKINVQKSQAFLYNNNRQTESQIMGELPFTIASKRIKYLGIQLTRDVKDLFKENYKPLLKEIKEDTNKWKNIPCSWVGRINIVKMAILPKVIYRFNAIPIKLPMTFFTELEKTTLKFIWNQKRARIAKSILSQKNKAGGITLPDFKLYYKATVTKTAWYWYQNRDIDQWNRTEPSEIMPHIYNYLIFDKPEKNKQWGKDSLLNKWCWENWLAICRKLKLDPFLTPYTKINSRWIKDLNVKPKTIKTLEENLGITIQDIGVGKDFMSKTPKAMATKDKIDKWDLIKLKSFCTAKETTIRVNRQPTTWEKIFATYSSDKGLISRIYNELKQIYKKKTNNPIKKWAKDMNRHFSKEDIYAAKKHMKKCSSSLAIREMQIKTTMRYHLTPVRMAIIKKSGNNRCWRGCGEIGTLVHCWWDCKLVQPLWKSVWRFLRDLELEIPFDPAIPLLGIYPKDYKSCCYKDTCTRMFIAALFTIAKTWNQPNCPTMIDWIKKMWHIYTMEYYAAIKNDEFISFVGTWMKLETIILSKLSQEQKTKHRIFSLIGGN
The test is described as follows: Stable artificial-intron Cis LINE1 reporter assay (HeLa Tet-On 3G, Firefly luciferase). In kind it is cell-based. Conditions: HeLa L1 artificial-intron reporter cells, doxycycline 500 ng/mL, 72 h, class symbols. Put shortly:
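HeLa Tet-On 3G clone stably carrying a bi-directional doxycycline-inducible artificial-intron LINE1 reporter, plated at 8,000 cells/well onto serially diluted compound. Expression induced with 500 ng/mL doxycycline (final); Firefly luciferase luminescence (Dual-Glo) read 72 h after plating as LINE1 activity.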
By IC50 is commonly meant the concentration that gives 50% inhibition. Read a low IC50 as greater potency. In turn, `Nc1ccn([C@@H]2O[C@@](CO)(CCl)[C@@H](O)C2(F)F)c(=O)n1` [Compound 119, 4-amino-1-((2R,4R,5R)-5-(chloromethyl)-3,3-difluoro-4-hydroxy-5-(hydroxymethyl)tetrahydrofuran-2-yl)pyrimidin-2(1H)-one] gave an IC50 of 0.05 to 0.1 µM.
In the case of `Nc1nc(=O)n([C@H]2C[C@H](O)[C@](CO)(C3CC3)O2)cc1F` [Compound 120, 4-amino-1-[(2R,4S,5R)-5-cyclopropyl-4-hydroxy-5-(hydroxymethyl)oxolan-2-yl]-5-fluoropyrimidin-2-one], the concentration for half-maximal inhibition (IC50) lay within 0.25 to 1 µM.
Turning to `Nc1ccn([C@@H]2O[C@@](CO)(C3CC3)[C@@H](O)[C@@H]2F)c(=O)n1` [Compound 121, 4-amino-1-[(2R,3S,4R,5R)-5-cyclopropyl-3-fluoro-4-hydroxy-5-(hydroxymethyl)oxolan-2-yl] pyrimidin-2-one], the IC50 lay within 0.1 to 0.25 µM.
Same read-out and setting: with `Nc1nc(=O)n([C@@H]2O[C@@](CO)(C3CC3)[C@@H](O)[C@@H]2F)cc1F` [Compound 122, 4-amino-1-[(2R,3S,4R,5R)-5-cyclopropyl-3-fluoro-4-hydroxy-5-(hydroxymethyl)oxolan-2-yl]-5-fluoropyrimidin-2-one] the figure was 0.25 to 1 µM; with `Nc1nc(=O)n([C@@H]2O[C@](/C=C\F)(CO)[C@@H](O)[C@@H]2F)cc1F` [Compound 123, 4-amino-5-fluoro-1-((2R,3S,4R,5R)-3-fluoro-5-((Z)-2-fluorovinyl)-4-hydroxy-5-(hydroxymethyl)tetrahydrofuran-2-yl)pyrimidin-2(1H)-one], 0.05 to 0.1 µM.
Still for that read-out and setting: to `Nc1nc(=O)n([C@@H]2O[C@@](CO)(CI)[C@@H](O)[C@@H]2F)cc1F` [Compound 129, 4-amino-5-fluoro-1-((2R,3S,4R,5R)-3-fluoro-4-hydroxy-5-(hydroxymethyl)-5-(iodomethyl)tetrahydrofuran-2-yl)pyrimidin-2(1H)-one] belongs more than 1 µM; to `Nc1nc(=O)n([C@@H]2O[C@](/C=C/Cl)(CO)[C@@H](O)[C@@H]2F)cc1F` [Compound 131, 4-amino-1-[(2R,3S,4R,5R)-5(E)-(2-chloroethenyl)-3-fluoro-4-hydroxy-5-(hydroxymethyl)oxolan-2-yl]-5-fluoropyrimidin-2-one], 0.1 to 0.25 µM.
The same measure, in the same setting: with `Nc1nc(=O)n([C@@H]2O[C@](/C=C\Cl)(CO)[C@@H](O)[C@@H]2F)cc1F` [Compound 132, 4-amino-1-[(2R,3S,4R,5R)-5-(2-chloroethenyl)-3-fluoro-4-hydroxy-5(Z)-(hydroxymethyl)oxolan-2-yl]-5-fluoropyrimidin-2-one] the figure was more than 1 µM.
Turning to `CSC[C@]1(CO)O[C@@H](n2cc(F)c(N)nc2=O)[C@@H](F)[C@@H]1O` [Compound 135], the IC50 is more than 1 µM.
For the compound `Nc1nc(=O)n([C@@H]2O[C@@](CO)(CCl)[C@@H](O)[C@@H]2Cl)cc1F` [Compound 137, 4-amino-1-[(2R,3S,4R,5R)-3-chloro-5-(chloromethyl)-4-hydroxy-5-(hydroxymethyl)oxolan-2-yl]-5-fluoropyrimidin-2-one], the IC50 lay in the range of 0.25 to 1 µM.
Same read-out and setting: to `[N-]=[N+]=N[C@]1(CO)O[C@@H](c2cc(I)c3c(N)ncnn23)C[C@@H]1O` [Compound 161, (2R,3S,5R)-5-(4-amino-5-iodopyrrolo[2,1-f][1,2,4]triazin-7-yl)-2-azido-2-(hydroxymethyl)tetrahydrofuran-3-ol] belongs 0.05 to 0.1 µM; to `C=C=C[C@]1(CO)O[C@@H](n2cnc3c(N)nc(F)nc32)C[C@@H]1O` [Compound 164, (2R,3S,5R)-5-(6-amino-2-fluoropurin-9-yl)-2-(hydroxymethyl)-2-(propa-1,2-dien-1-yl)oxolan-3-ol], 0.25 to 1 µM; to `Nc1ccn([C@@H]2O[C@@](CO)(CBr)[C@@H](O)[C@@H]2F)c(=O)n1` [Compound 172], not above 0.05 µM.
Still for that read-out and setting: to `CC(C)C(=O)OC[C@@]1(CCl)O[C@@H](n2cc(F)c(N)nc2=O)[C@@H](F)[C@@H]1OC(=O)C(C)C` [Compound 173, (2R,3R,4S,5R)-5-(4-amino-5-fluoro-2-oxopyrimidin-1(2H)-yl)-2-(chloromethyl)-4-fluoro-2-((isobutyryloxy)methyl)tetrahydrofuran-3-yl isobutyrate] belongs 0.25 to 1 µM.
For `[2H]C([2H])(Cl)[C@]1(CO)O[C@@H](n2cc(F)c(N)nc2=O)[C@@H](F)[C@@H]1O` [Compound 175, 4-amino-1-((2R,3S,4R,5R)-5-(chloromethyl-d2)-3-fluoro-4-hydroxy-5-(hydroxymethyl)tetrahydrofuran-2-yl)-5-fluoropyrimidin-2(1H)-one], the IC50 was not above 0.05 µM.
Still for that read-out and setting: with `Cc1cn([C@@H]2O[C@@](CO)(CCl)[C@@H](O)[C@@H]2F)c(=O)[nH]c1=O` [Compound 176] the figure was more than 1 µM.
The compound `Nc1nc(=O)n([C@@H]2OC(CO)(CO)[C@@H](O)[C@@H]2F)cc1F` [Compound 177, 4-amino-5-fluoro-1-((2R,3S,4R)-3-fluoro-4-hydroxy-5,5-bis(hydroxymethyl)tetrahydrofuran-2-yl) pyrimidin-2(1H)-one] displayed a half-maximal inhibitory concentration (IC50) of more than 1 µM.
`Cc1cn([C@@H]2O[C@@](CO)(N=[N+]=[N-])[C@@H](O)[C@@H]2F)c(=O)[nH]c1=O` [Compound 178, 1-((2R,3S,4R,5R)-5-azido-3-fluoro-4-hydroxy-5-(hydroxymethyl)tetrahydrofuran-2-yl)-5-methylpyrimidine-2,4(1H,3H)-dione]: the IC50 was in the range of 0.05 to 0.1 µM.
For the compound `O=c1[nH]c(=O)n([C@@H]2O[C@@](CO)(CCO)[C@@H](O)[C@@H]2F)cc1F` [Compound 179, 5-fluoro-1-((2R,3S,4R,5R)-3-fluoro-4-hydroxy-5-(2-hydroxyethyl)-5-(hydroxymethyl)tetrahydrofuran-2-yl) pyrimidine-2,4(1H,3H)-dione], the IC50 was more than 1 µM.
On to `Cc1cn([C@H]2C[C@H](F)[C@@](C)(CO)O2)c(=O)[nH]c1=O` [Compound 180, 1-((2R,4S,5R)-4-fluoro-5-(hydroxymethyl)-5-methyltetrahydrofuran-2-yl)-5-methylpyrimidine-2,4(1H,3H)-dione], for which the IC50 is more than 1 µM.

The test is the same for the next values; noted with them: HeLa L1 artificial-intron reporter cells, doxycycline 500 ng/mL, 72 h, numeric bounds.
In turn, `NC(=O)[C@]1(CO)O[C@@H](n2cc(F)c(N)nc2=O)[C@@H](F)[C@@H]1O` [Compound 138, (2R,3R,4S,5R)-5-(4-amino-5-fluoro-2-oxopyrimidin-1-yl)-4-fluoro-3-hydroxy-2-(hydroxymethyl)oxolane-2-carboxamide] showed an IC50 of more than 30 µM.
Consider `NC[C@]1(CO)O[C@@H](n2cc(F)c(N)nc2=O)[C@@H](F)[C@@H]1O` [Compound 139, 4-amino-1-[(2R,3S,4R,5R)-5-(aminomethyl)-3-fluoro-4-hydroxy-5-(hydroxymethyl)oxolan-2-yl]-5-fluoropyrimidin-2-one], for which the IC50 is more than 30 µM.
On the same count and under the same terms, with `CC(O)[C@]1(CO)O[C@@H](n2cc(F)c(=O)[nH]c2=O)[C@@H](F)[C@@H]1O` (stereo partly drawn) [Compound 162, 5-fluoro-1-[(2R,3S,4R,5S)-3-fluoro-4-hydroxy-5-(1-hydroxyethyl)-5-(hydroxymethyl)oxolan-2-yl]-3H-pyrimidine-2,4-dione] the figure was more than 30 µM.
Compound `O=c1[nH]c(=O)n([C@@H]2O[C@@](CO)(CCl)[C@@H](O)[C@@H]2F)cc1F` [Compound 163, 1-[(2R,3S,4R,5R)-5-(chloromethyl)-3-fluoro-4-hydroxy-5-(hydroxymethyl)oxolan-2-yl]-5-fluoro-3H-pyrimidine-2,4-dione] came in with an IC50 of more than 30 µM.
Same read-out and setting: with `N#C[C@]1(CO)O[C@@H](n2cc(F)c(N)nc2=O)[C@@H](F)[C@@H]1O` [Compound 166] the figure was more than 30 µM.
`CC(C)C(=O)OC[C@@]1(CCl)O[C@@H](n2ncc(N)nc2=O)C[C@@H]1OC(=O)C(C)C` [Compound 174, (2R,3S,5R)-5-(5-amino-3-oxo-1,2,4-triazin-2(3H)-yl)-2-(chloromethyl)-2-((isobutyryloxy)methyl)tetrahydrofuran-3-yl isobutyrate] had an IC50 of more than 30 µM.
